Results on two molecules are retold here after ChEMBL document CHEMBL1158778, “Paecilosetin, a new bioactive fungal metabolite from a New Zealand isolate of Paecilomyces farinosus” (J Nat Prod, 2005).

For one assay, the system named is Bacillus subtilis. The assay is described as follows: Antimicrobial activity against Bacillus subtilis at 5 ug/disk by agar diffusion assay. The settings on record: read-out: IZ. It is filed as functional.
The next assay deals with P388. The assay is described as follows: Cytotoxicity against mouse P388 cells by MTT assay. It is filed as functional, cell-based. (Formazan colour is commonly taken as a measure of viable cells.)
Another assay deals with Amorphotheca resinae. As to the kind of experiment: Antimicrobial activity against Cladosporium resinae at 40 ug/disk by agar diffusion assay. It is filed as functional. The settings on record: read-out: IZ. Background: A growth-free zone around the sample is the usual read-out of agar diffusion tests.
The test system of assay [1] is Trichophyton mentagrophytes. The assay is described as follows: Antimicrobial activity against Trichophyton mentagrophytes at 40 ug/disk by agar diffusion assay. The assay is classed as functional. The settings on record: read-out: IZ.

Values after ≈ are worked out from the molar mass of the structure shown.

Regarding `C/C=C/[C@@H]1C=C[C@@H]2C[C@H](C)CC[C@H]2[C@]1(C)/C(O)=C1\C(=O)N[C@@H](C(C)O)C1=O` (stereo not given in full) [PAECILOSETIN], the zone of inhibition at 5 µg/disc with Bacillus subtilis was 3 mm. Further, the IC50 (as a rule, the concentration that inhibits the measured activity by half) with P388 is 3.2 µg/mL (≈ 8.57 µM). For the same molecule, the figures for the zone of inhibition at 40 µg/disc (with Amorphotheca resinae; in assay [1]) were 1 mm and 3 mm, respectively.

As to `CCC(C)/C=C(C)/C=C/C=C/C=C/C(=O)c1c(O)c(-c2ccc(O)cc2)cn(O)c1=O` (stereo not given) [FARINOSONE B], the midpoint of inhibition in the assay on P388, the IC50, lay at 1.1 µg/mL (≈ 2.61 µM).
